Values of other authors as cited in US11359044B2, “Preparation and application of novel multifunctional nanocomposite material with new photosensitizer” (priority 2018, dated 2022).

Details: in DMSO, used as control

For `[Zn+2].c1ccc2c(c1)-c1nc-2nc2[n-]c(nc3nc([n-]c4nc(n1)-c1ccccc1-4)-c1ccccc1-3)c1ccccc21` [ZnPc, zinc phthalocyanine], which singlet oxygen yield is on record?
Its singlet oxygen yield is 0.67.
